Measured values as given in ChEMBL document CHEMBL6134925, “Novel Pyrrolidinone Urea as FPR2 Agonists for Treating Atherosclerosis and Heart Failure” (ACS Med Chem Lett, 2025).

Target: T1, N-formyl peptide receptor 2 (Homo sapiens, UniProt P25090)
T1 sequence (P25090 whole entry): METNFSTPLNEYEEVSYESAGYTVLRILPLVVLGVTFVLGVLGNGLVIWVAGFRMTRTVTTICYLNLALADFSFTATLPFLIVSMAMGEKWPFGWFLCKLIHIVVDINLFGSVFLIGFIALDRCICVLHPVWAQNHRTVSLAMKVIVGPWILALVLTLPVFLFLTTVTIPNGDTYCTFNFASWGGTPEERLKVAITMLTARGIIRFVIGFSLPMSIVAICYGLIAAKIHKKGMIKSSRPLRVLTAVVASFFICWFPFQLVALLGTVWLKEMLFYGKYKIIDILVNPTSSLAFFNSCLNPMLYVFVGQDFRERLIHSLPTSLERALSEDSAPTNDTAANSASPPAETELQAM
Assay: Agonist activity at human FPR2 receptor expressed in CHO cells assessed as forskolin/IBMX-induced intracellular cAMP level incubated for 30 mins by HTRF HiRange cAMP assay
Assay type: functional, cell-based

Row | SMILES | EC50
1 | CN(C)[C@@H]1CCN(c2ccc(N3CC[C@@H](NC(=O)Nc4ccc(Cl)cc4)C3=O)c(F)c2F)C1 | 0.19 nM
2 | CN[C@@H]1CCN(c2ccc(N3CCC(NC(=O)Nc4ccc(Cl)cc4)C3=O)c(F)c2F)C1 (stereo partly specified) | 5.6 nM
3 | CN(C)[C@@H]1CCN(c2ccc(N3CC[C@@H](NC(=O)Nc4ccc(C(F)(F)F)cc4)C3=O)c(F)c2F)C1 | 0.21 nM
4 | CN(CCO)[C@@H]1CCN(c2ccc(N3CCC(NC(=O)Nc4ccc(Cl)cc4)C3=O)c(F)c2F)C1 (stereo partly specified) | 0.27 nM
5 | O=C(Nc1ccc(C(F)(F)F)cc1F)NC1CCN(c2c(F)cc(N3CCCS3(=O)=O)cc2F)C1=O (stereo unspecified) | 7.2 nM
6 | O=C(Nc1ccc(Cl)cc1F)NC1CCN(c2c(F)cc(N3CCCS3(=O)=O)cc2F)C1=O (stereo unspecified) | 4.4 nM
